Laboratory results from patent US6858591B2, “Antibiotic AA 896 analogs” (Wyeth Holdings Corporation, priority 2001, dated 2005).
Values after ≈ are worked out from the molar mass of the structure shown. Read-outs that look alike come from different tables or passages of the source.

Assays:
Experiment in all cases: In vitro MIC, broth dilution
Format in all cases: cell-based
P. aeruginosa GC 4532 = conditions: Pseudomonas aeruginosa, GC4532; P. aeruginosa GC 4532; read-out: MIC
E. coli GC 4559 = conditions: Escherichia coli, GC4559; E. coli GC 4559; read-out: MIC
P. aeruginosa GC 2214 = conditions: Pseudomonas aeruginosa, GC2214; P. aeruginosa GC 2214; read-out: MIC
CNS GC 4537 = test system: CNS GC 4537
How it was run: (§1)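 Broth dilution per NCCLS M7-A recommendations in Mueller-Hinton II medium, inoculum 5×10^5 CFU/ml, antibiotic range 64-0.06 μg/ml. Plates incubated 18 hours at 35° C in ambient air; MIC taken as lowest concentration inhibiting growth.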

S. aureus GC 2216 = conditions: Staphylococcus aureus, GC2216; S. aureus GC 2216; read-out: MIC
How it was run: as §1

E. faecalis GC 2242 = conditions: Enterococcus faecalis, GC2242; E. faecalis GC 2242; read-out: MIC
How it was run: as §1

CNS GC 4547 = test system: CNS GC 4547
How it was run: as §1

CNS GC 4538 = test system: CNS GC 4538
How it was run: as §1

E. faecalis GC 842 = conditions: Enterococcus faecalis, GC842; E. faecalis GC 842; read-out: MIC
How it was run: as §1

S. aureus GC 4536 = conditions: Staphylococcus aureus, GC4536; S. aureus GC 4536; read-out: MIC
How it was run: as §1

S. aureus GC 1131 = conditions: Staphylococcus aureus, GC1131; S. aureus GC 1131; read-out: MIC
How it was run: as §1

E. faecalis GC 4555 = conditions: Enterococcus faecalis, GC4555; E. faecalis GC 4555; read-out: MIC
How it was run: as §1

S. marcescens GC 4077 = conditions: Serratia marcescens, GC4077; S. marcescens GC 4077; read-out: MIC
K. pneumoniae GC 4534 = conditions: Klebsiella pneumoniae, GC4534; K. pneumoniae GC 4534; read-out: MIC
E. coli GC 3226 = conditions: Escherichia coli, GC3226; E. coli GC 3226; read-out: MIC
E. cloacae GC 3783 = conditions: Enterobacter cloacae, GC3783; E. cloacae GC 3783; read-out: MIC
E. coli GC 2203 = conditions: Escherichia coli, GC2203; E. coli GC 2203; read-out: MIC
E. coli GC 4560 = conditions: Escherichia coli, GC4560; E. coli GC 4560; read-out: MIC
C. albicans GC 3066 = conditions: Candida albicans, GC3066; C. albicans GC 3066; read-out: MIC
M. morganii GC 4531 = conditions: Morganella morganii, GC4531; M. morganii GC 4531; read-out: MIC

Row | MIC (P. aeruginosa GC 4532) | MIC (E. coli GC 4559) | MIC (P. aeruginosa GC 2214) | MIC (CNS GC 4537; CNS GC 4537, read-out: MIC) | MIC (S. aureus GC 2216) | MIC (E. faecalis GC 2242) | MIC (CNS GC 4547; CNS GC 4547, read-out: MIC) | MIC (CNS GC 4538; CNS GC 4538, read-out: MIC) | MIC (E. faecalis GC 842) | MIC (S. aureus GC 4536) | MIC (S. aureus GC 1131) | MIC (E. faecalis GC 4555) | MIC (S. marcescens GC 4077) | MIC (K. pneumoniae GC 4534) | MIC (E. coli GC 3226) | MIC (E. cloacae GC 3783) | MIC (E. coli GC 2203) | MIC (E. coli GC 4560) | MIC (C. albicans GC 3066) | MIC (M. morganii GC 4531) | SMILES | also measured
1 | 128 µg/mL (≈ 141 µM) | > 128 µg/mL | 128 µg/mL (≈ 141 µM) | > 128 µg/mL | > 128 µg/mL | 128 µg/mL (≈ 141 µM) | > 128 µg/mL | > 128 µg/mL | > 128 µg/mL | > 128 µg/mL | > 128 µg/mL | > 128 µg/mL | > 128 µg/mL | > 128 µg/mL | > 128 µg/mL | > 128 µg/mL | > 128 µg/mL | > 128 µg/mL | 128 µg/mL (≈ 141 µM) | 128 µg/mL (≈ 141 µM) | COc1ccc(Cn2c(=O)ccn([C@@H]3OC([C@H](O)[C@H](NCCCNC(=O)[C@H](CC(C)C)NC(=O)[C@H](CCCNC(=N)N)NC(=O)N[C@H](C(=O)O)C(C)C)C(=O)O)[C@@H](O)[C@H]3O)c2=O)cc1 (stereo partly drawn) [Example 50, (2S,6S,9S,16S)-6-(3-{[Amino(imino)methyl]amino}propyl)-16-[(R)-[(3S,4R,5R)-3,4-dihydroxy-5-(3-(4-methoxybenzyl)-2,4-dioxo-3,4-dihydro-1(2H)-pyrimidinyl)tetrahydro-2-furanyl](hydroxy)-methyl]-9-isobutyl-2-isopropyl-4,7,10-trioxo-3,5,8,11,15-pentaazaheptadecane-1,17-dioic acid] | 
2 | 128 µg/mL (≈ 160 µM) | > 128 µg/mL | 128 µg/mL (≈ 160 µM) | > 128 µg/mL | > 128 µg/mL | 128 µg/mL (≈ 160 µM) | > 128 µg/mL | 128 µg/mL (≈ 160 µM) | 128 µg/mL (≈ 160 µM) | > 128 µg/mL | > 128 µg/mL | 128 µg/mL (≈ 160 µM) | > 128 µg/mL | > 128 µg/mL | > 128 µg/mL | > 128 µg/mL | > 128 µg/mL | 128 µg/mL (≈ 160 µM) | 128 µg/mL (≈ 160 µM) | 128 µg/mL (≈ 160 µM) | COc1ccc(Cn2c(=O)ccn([C@@H]3OC([C@H](O)[C@H](NCCCNC(=O)[C@H](CC(C)C)NC(=O)OCc4ccccc4)C(=O)OC(C)(C)C)[C@@H](O)[C@H]3O)c2=O)cc1 (stereo partly drawn) [Example 51, tert-Butyl (5S,12S)-12-[(R)-[(3S,4R,5R)-3,4-dihydroxy-5-(3-(4-methoxybenzyl)-2,4-dioxo-3,4-dihydro-1(2H)-pyrimidinyl)tetrahydro-2-furanyl](hydroxy)methyl]-5-isobutyl-3,6-dioxo-1-phenyl-2-oxa-4,7,11-triazatridecan-13-oate] | 
3 | 128 µg/mL (≈ 173 µM) | > 128 µg/mL | 128 µg/mL (≈ 173 µM) | > 128 µg/mL | > 128 µg/mL | 128 µg/mL (≈ 173 µM) | > 128 µg/mL | > 128 µg/mL | 128 µg/mL (≈ 173 µM) | > 128 µg/mL | > 128 µg/mL | 128 µg/mL (≈ 173 µM) | 128 µg/mL (≈ 173 µM) | > 128 µg/mL | > 128 µg/mL | > 128 µg/mL | > 128 µg/mL | 128 µg/mL (≈ 173 µM) | 128 µg/mL (≈ 173 µM) | 128 µg/mL (≈ 173 µM) | COc1ccc(Cn2c(=O)ccn([C@@H]3OC([C@H](O)[C@H](NCCCNC(=O)[C@H](CC(C)C)NC(=O)OCc4ccccc4)C(=O)O)[C@@H](O)[C@H]3O)c2=O)cc1 (stereo partly drawn) [Example 52, (5S,12S)-12-[(R)-[(3S,4R,5R)-3,4-Dihydroxy-5-(3-(4-methoxybenzyl)-2,4-dioxo-3,4-dihydro-1(2H)-pyrimidinyl)tetrahydro-2-furanyl](hydroxy)methyl]-5-isobutyl-3,6-dioxo-1-phenyl-2-oxa-4,7,11-triazatridecan-13-oic acid] | 

More lines, now with the values behind:

Row | SMILES | MIC (P. aeruginosa GC 4532) | MIC (E. coli GC 4559) | MIC (P. aeruginosa GC 2214) | MIC (CNS GC 4537; CNS GC 4537, read-out: MIC) | MIC (S. aureus GC 2216) | MIC (E. faecalis GC 2242) | MIC (CNS GC 4547; CNS GC 4547, read-out: MIC) | MIC (CNS GC 4538; CNS GC 4538, read-out: MIC) | MIC (E. faecalis GC 842) | MIC (S. aureus GC 4536) | MIC (S. aureus GC 1131) | MIC (E. faecalis GC 4555) | MIC (S. marcescens GC 4077) | MIC (K. pneumoniae GC 4534) | MIC (E. coli GC 3226) | MIC (E. cloacae GC 3783) | MIC (E. coli GC 2203) | MIC (E. coli GC 4560) | MIC (C. albicans GC 3066) | MIC (M. morganii GC 4531) | also measured
4 | COc1ccc(Cn2c(=O)ccn([C@@H]3OC([C@H](O)[C@H](NCCCNC(=O)[C@@H](N)[C@H](C)O)C(=O)OC(C)(C)C)[C@@H](O)[C@H]3O)c2=O)cc1 (stereo partly drawn) [Example 45, tert-Butyl (2S,3R)-2-[(3-{[(2S,3S)-2-amino-3-hydroxybutanoyl]amino}propyl)amino]-3-[(3S,4R,5R)-3,4-dihydroxy-5-(3-(4-methoxybenzyl)-2,4-dioxo-3,4-dihydro-1(2H)-pyrimidinyl)-tetrahydro-2-furanyl]-3-hydroxypropanoate] | 128 µg/mL (≈ 196 µM) | > 128 µg/mL | 128 µg/mL (≈ 196 µM) | > 128 µg/mL | > 128 µg/mL | 128 µg/mL (≈ 196 µM) | > 128 µg/mL | > 128 µg/mL | > 128 µg/mL | > 128 µg/mL | > 128 µg/mL | > 128 µg/mL | > 128 µg/mL | > 128 µg/mL | > 128 µg/mL | > 128 µg/mL | > 128 µg/mL | > 128 µg/mL | 128 µg/mL (≈ 196 µM) | 128 µg/mL (≈ 196 µM) | 
5 | COc1ccc(Cn2c(=O)ccn([C@@H]3OC([C@H](O)[C@H](NCCCNC(=O)[C@@H](NC(=O)[C@H](CCCNC(=N)N[N+](=O)[O-])NC(=O)N[C@H](C(=O)OCc4ccccc4)C(C)C)C(C)O)C(=O)O)[C@@H](O)[C@H]3O)c2=O)cc1 (stereo partly drawn) [Example 47, (4S,8S,11S,18S)-18-[(R)-[(3S,4R,5R)-3,4-Dihydroxy-5-(3-(4-methoxybenzyl)-2,4-dioxo-3,4-dihydro-1(2H)-pyrimidinyl)tetrahydro-2-furanyl](hydroxy)methyl]-8-(3-{[(2,2-dioxido-2lambda˜1˜-diazanyl)(imino)methyl]amino}propyl)-11-[(1S)-1-hydroxyethyl]-4-isopropyl-3,6,9,12-tetraoxo-1-phenyl-2-oxa-5,7,10,13,17-pentaazanonadecan-19-oic acid] | 128 µg/mL (≈ 124 µM) | > 128 µg/mL | > 128 µg/mL |  | > 128 µg/mL | 64 µg/mL (≈ 62.1 µM) |  |  | 128 µg/mL (≈ 124 µM) | > 128 µg/mL | > 128 µg/mL | 128 µg/mL (≈ 124 µM) | 128 µg/mL (≈ 124 µM) | > 128 µg/mL | > 128 µg/mL | > 128 µg/mL | > 128 µg/mL | 128 µg/mL (≈ 124 µM) | 128 µg/mL (≈ 124 µM) | 128 µg/mL (≈ 124 µM) | MIC (CNS GC 4537): > 128 µg/mL; MIC (CNS GC 4547): > 128 µg/mL; MIC (CNS GC 4538): > 128 µg/mL
6 | COc1ccc(Cn2c(=O)ccn([C@@H]3OC([C@H](O)[C@H](NCCCNC(=O)[C@@H](N)C(C)O)C(=O)O)[C@@H](O)[C@H]3O[Si](C)(C)C(C)(C)C)c2=O)cc1 (some centres unmarked) [Example 48] | 128 µg/mL (≈ 180 µM) | > 128 µg/mL | > 128 µg/mL | > 128 µg/mL | > 128 µg/mL | 64 µg/mL (≈ 90.2 µM) | 128 µg/mL (≈ 180 µM) | > 128 µg/mL | 128 µg/mL (≈ 180 µM) | > 128 µg/mL | > 128 µg/mL | 128 µg/mL (≈ 180 µM) | 128 µg/mL (≈ 180 µM) | > 128 µg/mL | > 128 µg/mL | > 128 µg/mL | > 128 µg/mL | 128 µg/mL (≈ 180 µM) | 128 µg/mL (≈ 180 µM) | 128 µg/mL (≈ 180 µM) | 
7 | COc1ccc(Cn2c(=O)ccn([C@@H]3OC([C@H](O)[C@H](NCCCNC(=O)[C@H](CC(C)C)NC(=O)[C@H](CCCNC(=N)N[N+](=O)[O-])NC(=O)N[C@H](C(=O)OCc4ccccc4)C(C)C)C(=O)O)[C@@H](O)[C@H]3O)c2=O)cc1 (stereo partly drawn) [Example 49, (4S,8S,11S,18S)-18-[(R)-[(3S,4R,5R)-3,4-Dihydroxy-5-(3-(4-methoxybenzyl)-2,4-dioxo-3,4-dihydro-1(2H)-pyrimidinyl)tetrahydro-2-furanyl](hydroxy)methyl]-8-(3-{[(2,2-dioxido-2lambda˜1˜-diazanyl)(imino)methyl]amino}propyl)-11-isobutyl-4-isopropyl-3,6,9,12-tetraoxo-1-phenyl-2-oxa-5,7,10,13,17-pentaazanonadecan-19-oic acid] | 128 µg/mL (≈ 123 µM) | > 128 µg/mL | 128 µg/mL (≈ 123 µM) |  | > 128 µg/mL | 128 µg/mL (≈ 123 µM) |  |  | 128 µg/mL (≈ 123 µM) | > 128 µg/mL | > 128 µg/mL | > 128 µg/mL | > 128 µg/mL | > 128 µg/mL | > 128 µg/mL | > 128 µg/mL | > 128 µg/mL | > 128 µg/mL | 128 µg/mL (≈ 123 µM) | 128 µg/mL (≈ 123 µM) | MIC (CNS GC 4537): > 128 µg/mL; MIC (CNS GC 4547): > 128 µg/mL; MIC (CNS GC 4538): > 128 µg/mL
